Molecules are shown by their SMILES.

For series [1], the system named is cultured cells on plastic. As to the kind of experiment: Gene transfer of cultured cells on plastic with hypertonic saline. Format: cell-based.
Series [2] has as its system human airway epithelial cells (HAE). Format: cell-based.
For series [3] the test system is unchanged. As to the kind of experiment: Scanning electron microscopy of HAE surface. The note with it: NaCl 3.6% for 2 hours vs no NaCl control.
Series [4] is described as follows: Osmolarity and pH of the solutions. Format: physicochemical.

Consider `[Cl-].[Na+]` [NaCl, sodium chloride], for which the “effect on cultured cells on plastic” value in series [1] was “lifting of the cells”. Moreover, the “transduction of primary human CF cultures, GP64 HIV-GFP” value in series [2] (MOI=50, NaCl formulation) is “remarkable levels of transduction”. For the same compound, the “GFP expression, GP64 HIV vector” value in series [2] (non-CF HAE, 3.5, 4 or 4.5% NaCl, MOI=50) was “dose-dependent increase in GFP expression”. The “cell surface integrity and ciliation by SEM” value in series [3] is listed as “no overt physical differences”. Further, the Osmolarity came to 310 mOsmol/l in series [4] (0.9% solution); 342 mOsmol/l in series [4] (1% solution); 684 mOsmol/l in series [4] (2% solution); 1027 mOsmol/l in series [4] (3% solution); 1230 mOsmol/l in series [4] (3.6% solution); 1369 mOsmol/l in series [4] (4% solution). Further, the Osmolarity in series [4] (5% solution) worked out at 1711 mOsmol/l; in series [4] (6% solution), 2053 mOsmol/l; in series [4] (7% solution), 2693 mOsmol/l. In addition, in series [4] (3.6% NaCl in deionized water), the “unadjusted pH” value is listed as around 6.
